# Results from ChEMBL document CHEMBL4229570, “Pyrrolo[2,1-c][1,4] benzodiazepine-3,11-diones protect SHSY-5Y cells from Cd-induced apoptosis involving suppression of endoplasmic reticulum stress” (Bioorg Med Chem, 2018).
# Activity calls are given as the source filed them. No cut-off for these calls is given here.
# Assays:
# SH-SY5Y [1] = test: Neuroprotective activity against CdCl2-induced toxicity in human SH-SY5Y cells assessed as cell viability at 25 uM preincubated for 2 hrs followed by CdCl2 challenge and measured after 24 hrs by CCK8 assay (reference value: 46.2 +/- 1.7%); type: functional; conditions: read-out: Activity
# SH-SY5Y [2] = test: Induction of apoptosis in human SH-SY5Y cells at 25 uM after 24 hrs by annexin V/propidium iodide staining-based flow cytometric analysis relative to control; type: cell-based
# SH-SY5Y [3] = test: Neuroprotective activity against CdCl2-induced apoptosis in human SH-SY5Y cells assessed as apoptosis rate at 25 uM preincubated for 2 hrs followed by CdCl2 challenge and measured after 24 hrs by annexin V/propidium iodide staining-based flow cytometric analysis (reference value: 73.2%); type: functional
# SH-SY5Y [4] = test: Neuroprotective activity against CdCl2-induced endoplasmic reticulum stress-mediated apoptosis in human SH-SY5Y cells assessed as downregulation of GRP78 protein expression at 25 uM preincubated for 2 hrs followed by CdCl2 challenge and measured after 24 hrs by Western blot analysis; type: functional, cell-based
# SH-SY5Y [5] = test: Neuroprotective activity against CdCl2-induced endoplasmic reticulum stress-mediated apoptosis in human SH-SY5Y cells assessed as downregulation of CHOP protein expression at 25 uM preincubated for 2 hrs followed by CdCl2 challenge and measured after 24 hrs by Western blot analysis; type: functional, cell-based
# SH-SY5Y [6] = test: Neuroprotective activity against CdCl2-induced endoplasmic reticulum stress-mediated apoptosis in human SH-SY5Y cells assessed as downregulation of cleaved caspase-3 protein expression at 25 uM preincubated for 2 hrs followed by CdCl2 challenge and measured after 24 hrs by Western blot analysis; type: functional, cell-based
# SH-SY5Y [7] = test: Neuroprotective activity against CdCl2-induced endoplasmic reticulum stress-mediated apoptosis in human SH-SY5Y cells assessed as downregulation of cleaved caspase-12 protein expression at 25 uM preincubated for 2 hrs followed by CdCl2 challenge and measured after 24 hrs by Western blot analysis; type: functional, cell-based
Compound,viability at 25 µM (SH-SY5Y [1]) [%],other results
O=C1Nc2ccc(Br)cc2CN2C(=O)CC[C@H]12,60.4,
O=C1[C@@H]2CCC(=O)N2Cc2ccccc2N1CCCCN1CCN(c2ncccn2)CC1,59.2,
COc1cc2c(cc1OCc1ccccc1)CN1C(=O)CC[C@H]1C(=O)N2CCCCN1CCN(c2ncccn2)CC1,62.2,
O=C1Nc2ccc(Br)cc2CN2C(=O)CC[C@@H]12,66.1,
O=C1[C@@H]2CCC(=O)N2Cc2cc(Br)ccc2N1CCCCN1CCN(c2ccccn2)CC1,62.4,
O=C1[C@@H]2CCC(=O)N2Cc2ccccc2N1CCCCCN1CCN(c2ccccn2)CC1,59.2,
Cc1ccccc1-c1ccc2c(c1)CN1C(=O)CC[C@H]1C(=O)N2,39.8,
O=C1Nc2ccccc2CN2C(=O)CC[C@H]12,48.4,
O=C1[C@@H]2CCC(=O)N2Cc2ccccc2N1CCCN1CCN(c2ncccn2)CC1,51.3,
O=C1Nc2ccc(Cl)cc2CN2C(=O)CC[C@H]12,56.2,
O=C1[C@@H]2CCC(=O)N2Cc2ccccc2N1CCCN1CCN(c2ccccn2)CC1,56.7,
Cc1ccc(-c2ccc3c(c2)CN2C(=O)CC[C@@H]2C(=O)N3)cc1,36.2,
COc1cc2c(cc1OCc1ccccc1)CN1C(=O)CC[C@H]1C(=O)N2,66.2,
O=C1[C@@H]2CCC(=O)N2Cc2cc(Br)ccc2N1CCCCN1CCN(c2ncccn2)CC1,63.1,
O=C1[C@@H]2CCC(=O)N2Cc2ccccc2N1CCCCCN1CCN(c2ncccn2)CC1,51.4,
O=C1Nc2cc3c(cc2CN2C(=O)CC[C@@H]12)OCO3,59.2,
COc1cc2c(cc1O)CN1C(=O)CC[C@H]1C(=O)N2,55.7,
O=C1[C@@H]2CCC(=O)N2Cc2ccccc2N1CCCCN1CCN(c2ccccn2)CC1,66.2,
O=C1Nc2cc3c(cc2CN2C(=O)CC[C@H]12)OCO3,56.6,
O=C1Nc2ccccc2CN2C(=O)CC[C@@H]12,52.2,
Cc1ccccc1-c1ccc2c(c1)CN1C(=O)CC[C@@H]1C(=O)N2,42.3,
O=C1Nc2ccc(Cl)cc2CN2C(=O)CC[C@@H]12,61.4,
COc1cc2c(cc1O)CN1C(=O)CC[C@@H]1C(=O)N2,56.8,
Cc1ccc(-c2ccc3c(c2)CN2C(=O)CC[C@H]2C(=O)N3)cc1,33.9,
COc1cc2c(cc1OCc1ccccc1)CN1C(=O)CC[C@@H]1C(=O)N2,60.4,
COc1cc2c(cc1OCc1ccccc1)CN1C(=O)CC[C@H]1C(=O)N2CCCCN1CCN(c2ccccn2)CC1,68.6,Activity (SH-SY5Y [2]): 4.2 to 5%; Activity (SH-SY5Y [3]): 18.7%; Activity (SH-SY5Y [4]): Active; Activity (SH-SY5Y [5]): Active; Activity (SH-SY5Y [6]): Active; Activity (SH-SY5Y [7]): Active
